Patent US20130338130A1 (priority 2009, published 2013)
Values joined by “and” are separate entries in the source; they are usually repeats but may differ in a detail not shown here. Equal values may be shown once. Read-outs that look alike come from different tables or passages of the source.

Legend:
[1] = system: ATCC strain 43300 Staphylococcus aureus; details: 24 hours; for average log reduction in cfu/ml: MSM (% in label) with antibiotic (12, 30, 60 μg/ml oxacillin or methicillin)
Protocol: All concentrations were plated out to the 10^−7 dilutions to ascertain cfu/ml.
ATCC strain 43300 Staphylococcus aureus was streaked out for isolations and 25 clones were picked and diluted to a McFarland standard of one. The estimated value was then taken to inoculate tubes containing growth media and 12, 30 or 60 μg/ml methicillin or oxacillin with around 10^−7 cfu/tube.
Material was calculated on a 10 ml volume. Sterile oxacillin or methicillin was added to each experimental condition to a final concentration of 12, 30 or 60 μg/ml antibiotic.
All tubes were then inoculated with a dilution of the selected ATCC strain 43300 Staphylococcus aureus clone giving a final level of colony forming units of 9.4×10^7/ml (log=7.97). The tubes were incubated at 25° C. and mixed periodically. […] Plating was done at 24 hours. Each condition was plated by diluting 1 ml of growth material into 9 ml of MLB diluent broth. This mixture was serial diluted down to 10^−7, and 1 ml placed in a sterile petri dish at each dilution point. 20 mls of TSA was added to each dilution, swirled and allowed to solidify. All dilutions were placed in a 35° C. incubator for 24 hours. Bacterial colonies on each plate were counted and colony counts changed into log format. A positive and negative control was ascertained.

[2] = system: ATCC strain 43300 Staphylococcus aureus; details: for survival (cfu/ml): 12 μg/ml oxacillin (re-added every 24 hours) + MSM (% in label), three columns = triplicate platings, inoculum 3.3×10^5/ml; for survival, Average Log: 12 μg/ml oxacillin + MSM (% in label)
Protocol: Additional antibiotic was added every 24 hours. The growth periods tested were 24 (see FIG. 4), 48, 72, 96 and 120 hours.
USP<51> Antimicrobial Effectiveness protocol was used as the template experimental paradigm. […] All concentrations were plated out to the 10^−7 dilutions to ascertain cfu/ml. […] Additional antibiotic was added at the initial concentration every 24 hours.
ATCC strain 43300 Staphylococcus aureus was streaked out for isolations. An isolated colony was chosen, streaked again and incubated. Isolate was chosen and then diluted to a McFarland standard of one. The estimated value was then taken to inoculate tubes containing growth media and 12, 30 or 60 μg/ml oxacillin with approximately 10^5 cfu/ml. These tubes were incubated and plated for counting cfu. A clone having no observed log reduction in cfu was selected for the rest of the experiment.
Material was calculated on a 10 ml volume. Sterile oxacillin was added to each experimental condition to a final concentration of 12, 30 or 60 μg/ml antibiotic.
All tubes were then inoculated with a dilution of the selected ATCC strain 43300 Staphylococcus aureus clone giving a final level of colony forming units of 3.3×10^5/ml (log=5.52). The tubes were incubated at 25° C. and mixed periodically. Antibiotic was re-inoculated every 24 hours at the initial concentration to maintain pressure on the organism. Plating was done at 24, 48, 72, and 120 hours. Each condition was plated by diluting 1 ml of growth material into 9 ml of MLB diluent broth. […] This mixture was serial diluted down to 10^−7 with 1 ml placed in triplicate in a sterile petri dish at each dilution point. 20 mls of TSA was added to each dilution, swirled and allowed to solidify. All dilutions were placed in a 35° C. incubator for 24 to 72 hours. Bacterial colonies on each plate were counted and the average taken then changed into log format. Any cfu/ml observed greater than 3.3×10^5 (log=5.5) were recorded as >3.3×10^5.
The tube was then taken out of the experiment and tested for ATCC strain 43300 Staphylococcus growth. The tube was spun down at 5000 rpm for 10 minutes. The supernatant was then decanted into 90 mls of Mueller-Hinton broth with 6 μg/ml oxacillin. This is for enrichment and the recovery of any MRSA cells that may be present whether healthy or stressed. The pellet had 10 mls Mueller-Hinton broth with 6 μg/ml oxacillin added to it to recover any cells that may be present. Both vessels were incubated at 35° C. for 48 hours followed by plating every 24 hours. Each vessel was plated at 10 dilutions to obtain a 1 cfu detection limit.

CS(C)(=O)=O [MSM, Methylsulfonylmethane]
survival (Log cfu/ml) ([1]; 12 μg/ml methicillin + MSM (% in label), inoculum log=7.97, listed as 5% MSM): 5.43 Log cfu/ml | survival (Log cfu/ml) ([1]; 12 μg/ml methicillin + MSM (% in label), inoculum log=7.97, listed as 6% MSM): 5.2 Log cfu/ml | survival (Log cfu/ml) ([1]; 12 μg/ml methicillin + MSM (% in label), inoculum log=7.97, listed as 7% MSM): 5.46 Log cfu/ml | survival (Log cfu/ml) ([1]; 12 μg/ml methicillin + MSM (% in label), inoculum log=7.97, listed as 8% MSM): 5.0 Log cfu/ml | survival (Log cfu/ml) ([1]; 12 μg/ml methicillin + MSM (% in label), inoculum log=7.97, listed as 9% MSM): 4.99 Log cfu/ml | survival (Log cfu/ml) ([1]; 12 μg/ml methicillin + MSM (% in label), inoculum log=7.97, listed as 10% MSM): 4.8 Log cfu/ml | survival (Log cfu/ml) ([1]; 12 μg/ml methicillin + MSM (% in label), inoculum log=7.97, listed as 11% MSM): 4.87 Log cfu/ml | survival (Log cfu/ml) ([1]; 12 μg/ml methicillin + MSM (% in label), inoculum log=7.97, listed as 12% MSM): 4.89 Log cfu/ml | survival (Log cfu/ml) ([1]; 12 μg/ml methicillin + MSM (% in label), inoculum log=7.97, listed as 13% MSM): 4.77 Log cfu/ml | survival (Log cfu/ml) ([1]; 12 μg/ml methicillin + MSM (% in label), inoculum log=7.97, listed as 14% MSM): 4.7 Log cfu/ml | survival (Log cfu/ml) ([1]; 12 μg/ml oxacillin + MSM (% in label), listed as 5% MSM): 5.28 Log cfu/ml | survival (Log cfu/ml) ([1]; 12 μg/ml oxacillin + MSM (% in label), listed as 6% MSM): 5.26 Log cfu/ml | survival (Log cfu/ml) ([1]; 12 μg/ml oxacillin + MSM (% in label), listed as 7% MSM): 5.18 Log cfu/ml | survival (Log cfu/ml) ([1]; 12 μg/ml oxacillin + MSM (% in label), listed as 8% MSM): 5.18 Log cfu/ml | survival (Log cfu/ml) ([1]; 12 μg/ml oxacillin + MSM (% in label), listed as 9% MSM): 5.16 Log cfu/ml | survival (Log cfu/ml) ([1]; 12 μg/ml oxacillin + MSM (% in label), listed as 10% MSM): 4.96 Log cfu/ml | survival (Log cfu/ml) ([1]; 12 μg/ml oxacillin + MSM (% in label), listed as 11% MSM): 4.8 Log cfu/ml | survival (Log cfu/ml) ([1]; 12 μg/ml oxacillin + MSM (% in label), listed as 12% MSM): 4.8 Log cfu/ml | survival (Log cfu/ml) ([1]; 12 μg/ml oxacillin + MSM (% in label), listed as 13% MSM): 4.9 Log cfu/ml | survival (Log cfu/ml) ([1]; 12 μg/ml oxacillin + MSM (% in label), listed as 14% MSM): 4.88 Log cfu/ml | survival (Log cfu/ml) ([1]; 30 μg/ml methicillin + MSM (% in label), listed as 9% MSM): 5.07 Log cfu/ml | survival (Log cfu/ml) ([1]; 30 μg/ml methicillin + MSM (% in label), listed as 10% MSM): 4.8 Log cfu/ml | survival (Log cfu/ml) ([1]; 30 μg/ml methicillin + MSM (% in label), listed as 11% MSM): 4.8 Log cfu/ml | survival (Log cfu/ml) ([1]; 30 μg/ml methicillin + MSM (% in label), listed as 12% MSM): 4.7 Log cfu/ml | survival (Log cfu/ml) ([1]; 30 μg/ml methicillin + MSM (% in label), listed as 13% MSM): 4.7 Log cfu/ml | survival (Log cfu/ml) ([1]; 30 μg/ml methicillin + MSM (% in label), listed as 14% MSM): 4.6 Log cfu/ml | survival (Log cfu/ml) ([1]; 30 μg/ml methicillin + MSM (% in label), listed as 15% MSM): 4.54 Log cfu/ml | survival (Log cfu/ml) ([1]; 30 μg/ml methicillin + MSM (% in label), listed as 16% MSM): 4.47 Log cfu/ml | survival (Log cfu/ml) ([1]; 30 μg/ml oxacillin + MSM (% in label), listed as 9% MSM): 5.02 Log cfu/ml | survival (Log cfu/ml) ([1]; 30 μg/ml oxacillin + MSM (% in label), listed as 10% MSM): 4.99 Log cfu/ml | survival (Log cfu/ml) ([1]; 30 μg/ml oxacillin + MSM (% in label), listed as 11% MSM): 4.94 Log cfu/ml | survival (Log cfu/ml) ([1]; 30 μg/ml oxacillin + MSM (% in label), listed as 12% MSM): 4.87 Log cfu/ml | survival (Log cfu/ml) ([1]; 30 μg/ml oxacillin + MSM (% in label), listed as 13% MSM): 4.9 Log cfu/ml | survival (Log cfu/ml) ([1]; 30 μg/ml oxacillin + MSM (% in label), listed as 14% MSM): 4.82 Log cfu/ml | survival (Log cfu/ml) ([1]; 30 μg/ml oxacillin + MSM (% in label), listed as 15% MSM): 4.74 Log cfu/ml | survival (Log cfu/ml) ([1]; 30 μg/ml oxacillin + MSM (% in label), listed as 16% MSM): 4.59 Log cfu/ml | average log reduction in cfu/ml ([1]; listed as 5% MSM): 2.2 log | average log reduction in cfu/ml ([1]; listed as 16% MSM): 3.3 log | colony numbers ([1]; MSM without antibiotic control condition): greater colony numbers than what was initially inoculated | survival (cfu/ml) ([2]; 24 hours, listed as 15% MSM): 1.35 × 10^4 cfu/ml and 1.30 × 10^4 cfu/ml | survival (cfu/ml) ([2]; 24 hours, listed as 16% MSM): 7.6 × 10^3 cfu/ml and 7.4 × 10^3 cfu/ml | survival, Average Log ([2]; 24 hours, listed as 5% MSM): 3.91 Log | survival, Average Log ([2]; 24 hours, listed as 6% MSM): 3.92 Log | survival, Average Log ([2]; 24 hours, listed as 7% MSM): 3.91 Log | survival, Average Log ([2]; 24 hours, listed as 8% MSM): 3.82 Log | survival, Average Log ([2]; 24 hours, listed as 9% MSM): 3.72 Log | survival, Average Log ([2]; 24 hours, listed as 10% MSM): 3.76 Log | survival, Average Log ([2]; 24 hours, listed as 11% MSM): 3.91 Log | survival, Average Log ([2]; 24 hours, listed as 12% MSM): 3.85 Log | survival, Average Log ([2]; 24 hours, listed as 13% MSM): 3.95 Log | survival, Average Log ([2]; 24 hours, listed as 14% MSM): 4.00 Log | survival, Average Log ([2]; 24 hours, listed as 15% MSM): 4.11 Log | survival, Average Log ([2]; 24 hours, listed as 16% MSM): 3.88 Log | survival, Average Log ([2]; 48 hours, listed as 5% MSM): 3.6 Log | survival, Average Log ([2]; 48 hours, listed as 6% MSM): 3.2 Log | survival, Average Log ([2]; 48 hours, listed as 7% MSM): 3.9 Log | survival, Average Log ([2]; 48 hours, listed as 8% MSM): 3.7 Log | survival, Average Log ([2]; 48 hours, listed as 9% MSM): 3.4 Log | survival, Average Log ([2]; 48 hours, listed as 10% MSM): 2.7 Log | survival, Average Log ([2]; 48 hours, listed as 11% MSM): 2.8 Log | survival, Average Log ([2]; 48 hours, listed as 12% MSM): 2.8 Log | survival, Average Log ([2]; 48 hours, listed as 13% MSM): 2.8 Log | survival, Average Log ([2]; 48 hours, listed as 14% MSM): 1.0 Log | survival, Average Log ([2]; 48 hours, listed as 15% MSM): 3.7 Log | survival, Average Log ([2]; 48 hours, listed as 16% MSM): 3.7 Log | survival, Average Log ([2]; 72 hours, listed as 5% MSM): 5.5 Log | survival, Average Log ([2]; 72 hours, listed as 6% MSM): 5.5 Log | survival, Average Log ([2]; 72 hours, listed as 7% MSM): 5.5 Log | survival, Average Log ([2]; 72 hours, listed as 8% MSM): 5.5 Log | survival, Average Log ([2]; 72 hours, listed as 9% MSM): 4.5 Log | survival, Average Log ([2]; 72 hours, listed as 10% MSM): 4.0 Log | survival, Average Log ([2]; 72 hours, listed as 11% MSM): 3.6 Log | survival, Average Log ([2]; 72 hours, listed as 12% MSM): 3.1 Log | survival, Average Log ([2]; 72 hours, listed as 13% MSM): 2.7 Log | survival, Average Log ([2]; 72 hours, listed as 14% MSM): 2.0 Log | survival, Average Log ([2]; 72 hours, listed as 15% MSM): 2.3 Log
